Test results: the NIST ThermoML archive (doi:10.1016/j.jct.2017.01.016)

Test: xn = mol fraction of the nth substance listed
Settings: 101 kPa, Liquid; for viscosity: Capillary tube (Ostwald / Ubbelohde) method; for speed of sound: Frequency=3 MHz, Linear variable-path acoustic interferometer

C1COCCO1 [1,4-dioxane] + Cc1ccccc1
Settings	speed of sound [m/s]	viscosity [mPa·s]
293.15 K, x1 = 0.0688	1330.1	0.6346
293.15 K, x1 = 0.1373	1331.5	0.6812
293.15 K, x1 = 0.2112	1333	0.732
293.15 K, x1 = 0.2858	1334.8	0.784
293.15 K, x1 = 0.3552	1336.5	0.8327
293.15 K, x1 = 0.4361	1338.6	0.8901
293.15 K, x1 = 0.5064	1340.7	0.9405
293.15 K, x1 = 0.5819	1343.2	0.9951
293.15 K, x1 = 0.6506	1346	1.045
293.15 K, x1 = 0.7212	1349.1	1.097
293.15 K, x1 = 0.7903	1352.5	1.148
293.15 K, x1 = 0.864	1356.9	1.203
293.15 K, x1 = 0.9336	1361.8	1.256
293.15 K, x1 = 1	1367.2	1.306
298.15 K, x1 = 0.0688	1308.4	0.5952
298.15 K, x1 = 0.1373	1309.5	0.6366
298.15 K, x1 = 0.2112	1310.9	0.682
298.15 K, x1 = 0.2858	1312.4	0.7282
298.15 K, x1 = 0.3552	1313.9	0.7716
298.15 K, x1 = 0.4361	1315.9	0.8229
298.15 K, x1 = 0.5064	1317.9	0.8679
298.15 K, x1 = 0.5819	1320.4	0.9166
298.15 K, x1 = 0.6506	1323.2	0.9613
298.15 K, x1 = 0.7212	1326.3	1.008
298.15 K, x1 = 0.7903	1329.8	1.053
298.15 K, x1 = 0.864	1334.2	1.103
298.15 K, x1 = 0.9336	1339.1	1.15
298.15 K, x1 = 1	1344.7	1.195
303.15 K, x1 = 0.0688	1286.3	0.56
303.15 K, x1 = 0.1373	1287.2	0.597
303.15 K, x1 = 0.2112	1288.4	0.6373
303.15 K, x1 = 0.2858	1289.7	0.6785
303.15 K, x1 = 0.3552	1291.2	0.7173
303.15 K, x1 = 0.4361	1293.2	0.7631
303.15 K, x1 = 0.5064	1295.2	0.8033
303.15 K, x1 = 0.5819	1297.8	0.8469
303.15 K, x1 = 0.6506	1300.6	0.887
303.15 K, x1 = 0.7212	1303.9	0.9286
303.15 K, x1 = 0.7903	1307.5	0.9696
303.15 K, x1 = 0.864	1312.2	1.014
303.15 K, x1 = 0.9336	1317.3	1.056
303.15 K, x1 = 1	1323.1	1.096
308.15 K, x1 = 0.0688	1264.8	0.5284
308.15 K, x1 = 0.1373	1265.5	0.5619
308.15 K, x1 = 0.2112	1266.5	0.5984
308.15 K, x1 = 0.2858	1267.7	0.6357
308.15 K, x1 = 0.3552	1269	0.6709
308.15 K, x1 = 0.4361	1270.9	0.7124
308.15 K, x1 = 0.5064	1272.9	0.7489
308.15 K, x1 = 0.5819	1275.4	0.7885
308.15 K, x1 = 0.6506	1278.2	0.8249
308.15 K, x1 = 0.7212	1281.6	0.8627
308.15 K, x1 = 0.7903	1285.3	0.8998
308.15 K, x1 = 0.864	1290.1	0.9399
308.15 K, x1 = 0.9336	1295.3	0.978
308.15 K, x1 = 1	1301.2	1.014
313.15 K, x1 = 0.0688	1242.8	0.4969
313.15 K, x1 = 0.1373	1243.4	0.5278
313.15 K, x1 = 0.2112	1244.3	0.5615
313.15 K, x1 = 0.2858	1245.4	0.596
313.15 K, x1 = 0.3552	1246.7	0.6284
313.15 K, x1 = 0.4361	1248.6	0.6666
313.15 K, x1 = 0.5064	1250.6	0.7003
313.15 K, x1 = 0.5819	1253.2	0.7368
313.15 K, x1 = 0.6506	1256	0.7702
313.15 K, x1 = 0.7212	1259.4	0.805
313.15 K, x1 = 0.7903	1263.3	0.8393
313.15 K, x1 = 0.864	1268.2	0.8762
313.15 K, x1 = 0.9336	1273.6	0.9114
313.15 K, x1 = 1	1279.7	0.945
318.15 K, x1 = 0.0688	1221	0.467
318.15 K, x1 = 0.1373	1221.5	0.4958
318.15 K, x1 = 0.2112	1222.3	0.5272
318.15 K, x1 = 0.2858	1223.3	0.5593
318.15 K, x1 = 0.3552	1224.6	0.5895
318.15 K, x1 = 0.4361	1226.5	0.6251
318.15 K, x1 = 0.5064	1228.6	0.6564
318.15 K, x1 = 0.5819	1231.2	0.6903
318.15 K, x1 = 0.6506	1234.1	0.7215
318.15 K, x1 = 0.7212	1237.6	0.7539
318.15 K, x1 = 0.7903	1241.6	0.7857
318.15 K, x1 = 0.864	1246.7	0.82
318.15 K, x1 = 0.9336	1252.3	0.8527
318.15 K, x1 = 1	1258.6	0.884
